Test results taken from patent US20130064812A1, “COMBINATION THERAPIES FOR HEMATOLOGIC MALIGNANCIES” (Gilead Calistoga LLC, priority 2011, published 2013).

Legend:
CLL = test: ALC and lymphadenopathy in a patient with CLL; assay type: in vivo, human; conditions: 1 cycle (28 days) oral
Procedure: This example provides data relating to the concentration of absolute lymphocyte count (ALC) in the blood of a patient with CLL after 1 cycle (28 days) of treatment with oral administration of the compound of formula I. The blood ALC concentration was measured over a period of 4 weeks after completion of one cycle of treatment. A 55% decrease in lymphocytosis and a 38% decrease in lymphadenopathy as a result of treatment were observed. A marked decrease in ALC concentration is observed between week 1 and week 2, FIG. 13.

[1] = tested on: T47D and HS-578T cell lines; test: Proliferation of breast cancer cell lines (AlamarBlue); assay type: cell-based; conditions: 48 hrs and 72 hrs
Procedure: T47D and HS-578T cell lines were grown in the presence of serum plus the indicated concentrations of the compound of formula I. Proliferation was measured in triplicate wells by AlamarBlue® assay (Invitrogen) 96-well plates.

PI3K-δ = test: PI3K ELISA assay on CLL cell lysates with lenalidomide; assay type: cell-based, human; conditions: 0.5 μM lenalidomide; 1 or 10 μM compound added to lysate; N=9
Procedure: PI3K assay was preformed on whole cell lysates from CLL cells. The ELISA assay was performed according to the manufacture's instructions (Echelon Biosciences, Salt Lake City, Utah).
To first confirm the specificity of PI3-kinase activation, the direct increase in the enzymatic activity of PI3K following treatment with lenalidomide was determined. […] Results were calculated relative to μg of protein. Signaling with lenalidomide through the PI3K pathway can occur through four catalytic isoforms: p110α, p110β, p110γ, and p110δ.

[2] = tested on: CLL cells with StromaNKTert; test: Viability / apoptosis of stroma-exposed CLL cells (Annexin V/PI); assay type: cell-based, human
Procedure: CLL cells were cultured under standardized conditions on stromal cell lines or primary NLC. Briefly, stromal cells were seeded one day prior to each experiment onto 24-well plates (Corning Life Sciences) at a concentration of 3×10^5 cells/mL/well and incubated at 37° C. in 5% CO2. Stromal cell confluence was confirmed by phase contrast microscopy, and CLL cells were then added onto the stromal cell layer at a concentration of 3×10^6 cells/mL. Cultures were then treated with compounds for the specified time periods. CLL cells were removed for analysis by gentle pipetting with media, and were then washed in PBS prior to analysis. A 24-hour co-culture time point was used unless otherwise indicated.
CLL cell viability was determined by analysis of Annexin V-FITC (BD Biosciences, San Diego, Calif.) and Propidium Iodine (PI) (Sigma) by FACS.
To determine whether PI3K inhibition increased the sensitivity of stroma-exposed CLL cells by increasing priming, PB-derived CLL cells cultured with or without StromaNKTert cells for 24 hours and were examined using Annexin-PI and BH3 profiling. […] Stromal co-culture of four CLL patient samples led to protection from apoptosis in untreated cells.

INA-6 cells = test: Cleavage of caspases and PARP in INA-6 cells (western blot); assay type: cell-based, human; conditions: INA-6, 0-5 μM, 120 h
Description: Whole-cell lysates were subjected to sodium dodecyl sulfate-polyacrylamide gel electrophoresis (SDS-PAGE) separation, transferred to Pure Nitrocellulose membranes (Bio-Rad Laboratories, Hercules, Calif.), and immunoblotted with anti-AKT, phospho(p)-AKT (Ser473, Thr 308), ERK1/2, P-ERK1/2, P-PDK1, STAT, P-STAT, P-FKRHL, P-70S6K, LC3, and PI3K/p110α Abs (Cell Signaling Danvers, Mass.); anti-p110β, PI3K/p110δ, Glyceraldehyde 3-phosphate dehydrogenase (GAPDH), α-tubulin, and actin Abs (Santa Cruz Biotechnology, CA); and anti-p110γ Ab (Alexis, San Diego, Calif.): and anti-LC3 Ab (Abgent, San Diego, Calif.).
Total cell lysates were subjected to immunoblotting using anti-caspase-3, -8, -9, PARP, and α-tubulin Abs. FL indicates full-length protein, and CL indicates cleaved protein.

patient AML cells = test: Phospho-Akt production in patient AML cells; assay type: cell-based, human; conditions: 0.1, 1.0, 10 μM
Description: PI3Kδ is implicated in signaling in AML patient cells.

[3] = tested on: CD19+ cells from CLL patients; test: Surface CD40, CD86, CD20 on CD19+ CLL cells (flow cytometry); assay type: cell-based, human; conditions: 0.5 μM lenalidomide and/or 10 μM compound, 48 hours
Procedure: Antibodies to CD20, CD40, CD80, CD86 or IgG1 (BD Biosciences, San Jose Calif.) were surface stained.
To extend these findings, inhibition of PI3K-δ prevented lenalidomide was investigated to see whether it induced up-regulation of other co-stimulatory molecules important to B-cell antigen presentation. […] Surface expression of CD40 or CD86 was evaluated by flow cytometry using a CD40- or CD86-PE antibodies and IgG1-PE isotype control.
Internalization of CD20 was evaluated by quantifying surface expression of CD20 by flow cytometry using a CD20-PE antibodies and IgG1-PE isotype control.

[4] = tested on: T-ALL and B-ALL leukemic cell lines; test: ALL cell lines: AlamarBlue viability and Akt phosphorylation; assay type: cell-based; conditions: for cellular viability in ALL cell lines: 48 hours
Procedure: Viability assays of cell lines were performed using the AlamarBlue assay (Invitrogen). Cells (1×10^6 per well) in a volume of 100 μL were placed in a 96-well flat-bottom plate and the compound of formula I (100 μL per well at 2× final concentration) or medium alone was added to the plates. All were performed in quadruplicate. Cells were incubated for fixed times (48 hours). After the incubation, 10 μL AlamarBlue® was added to each well. Cells were incubated for 4 hours and the optical density at 530-560 nm was obtained using a SpectraMax® M5 plate reader 2001. Cell viability was expressed as a percentage of absorption between treated cells/control sample.

CC[C@H](Nc1ncnc2[nH]cnc12)c1nc2cccc(F)c2c(=O)n1-c1ccccc1 [Compound I, 5-fluoro-3-phenyl-2-[1-(9H-purin-6-ylamino)-propyl]-3H-quinazolin-4-one]
decrease in lymphadenopathy (CLL): 38%
decrease in lymphocytosis (CLL): 55%
proliferation of breast cancer cell lines [1]: reduces cellular proliferation of two breast cancer cell lines
proliferation of breast cancer cell lines ([1]; listed as compound of formula I): inhibits proliferation of breast cancer cell lines
PI3K enzymatic activity after lenalidomide (PI3K-δ): prevent the increase in PI3K enzymatic activity
apoptosis in stroma-exposed CLL cells ([2]; 10 μM, untreated less than 10%): More than 40%
apoptosis versus control in the absence of stroma ([2]; four patient samples, 24 hours): induce more apoptosis than the control
apoptosis versus control in the presence of stroma ([2]; four patient samples, 24 hours): induce significantly more apoptosis than the control
stroma-mediated resistance (CLL cell viability) ([2]; two patients, 24 hours, ABT-737 100 nM, compound I 10 μM): profound stroma-mediated resistance
sensitivity of CLL cells to ABT-737 in the presence of stroma ([2]; two resistant CLL patient samples): restored sensitivity of CLL cells to ABT-737 in the presence of stroma
cleavage of caspases and PARP (INA-6 cells): Significantly increased cleavage of caspase-8, caspase-9, caspase-3, and PARP
phospho-Akt production in patient AML cells (patient AML cells): reduces phospho-Akt production in patient AML cells
internalization of CD20 ([3]; N=5, p=0.0057): prevented this effect
surface expression of CD40 and CD86 ([3]; N=25, p=0.0102 and <0.0001): prevent the up-regulation of CD40 and CD86 induced by lenalidomide
Akt phosphorylation in ALL cell lines [4]: reduction in Akt phosphorylation
cellular viability in ALL cell lines [4]: significant reduction in cell viability in all six cell lines
cellular viability in ALL cell lines ([4]; listed as compound I): substantial reduction in cellular viability
